Entries after “also recorded” stand apart in the source; their conditions may differ.
Tests used:
[1] = system: human lymphoblastoid TK6 cells; assay: In vitro TK6 micronucleus assay; format: cell-based; conditions: for Conclusion TK6 MNT screen result: 30+0 hour -S-9 up to limit of cytotoxicity, 3+27 hours +S-9 up to 1 mM
Description: An in vitro TK6 Micronucleus Assay was performed to evaluate the clastogenic and aneugenic potential of a LATS inhibitor by its effects on the frequency of micronuclei in cultured human lymphoblastoid TK6 cells treated for 30 hours with no recovery in the absence of an Aroclor-induced rat liver metabolizing system (S-9) (30+0 hour -S-9) and for 3 hours in the presence of S-9 with 27 hours of recovery (3+27 hours +S-9).
TK6 cells were cultured in HEPES-buffered RPMI 1640 medium with GlutaMAXTM-1 including 10% (v/v) heat inactivated foetal calf serum, 100 Units/mL/100 µg/mL penicillin / streptomycin. Liver S-9 mix from male rats induced with Aroclor 1254 was added as a 10% S-9 mix to achieve a final concentration of 1% in the test system. […] Standard vehicle used was DMSO.
For valid data, the test item was considered to induce clastogenic and/or aneugenic events if: • A statistically significant increase in the frequency of micronucleated mononucleate (MNMON) cells at one or more concentrations was observed • An incidence of MNMON cells at such a concentration exceeded the normal range in both replicate cultures was observed • A concentration-related increase in the proportion of MNMON cells was observed (positive trend test).
The test item was considered positive in this assay if all of the above criteria were met. The test item was considered negative in this assay if none of the above criteria were met.

[2] = system: Salmonella typhimurium (TA98 and TA100); assay: Bacterial reverse mutation assay (6-well Ames screen); format: cell-based; conditions: TA98 and TA100, absence or presence of rat liver S-9 mix, maximum concentration 500 µg/well
Description: A Bacterial Reverse Mutation Assay (“Ames Test”) was performed to evaluate the mutagenic potential of a LATS inhibitor by its effects on one or more histidine-requiring strains of Salmonella typhimurium (TA98 and TA100.) in the absence and presence of a liver metabolizing system.
The 6-well plate Ames test is a miniaturized screening version of the original test using smaller volumes and test item amounts, see e.g. P.A. Escobar et al. (2013), Mut. Res. 752, 99-118. The highest concentration of 500 µg/well used in this 6-well Ames screen corresponds to about the top concentration of […] in the standard Ames test. Liver S-9 mix from male rats induced with Aroclor 1254 was added as a 5% S-9 mix to the test system. […] Standard vehicle used was DMSO.
The test article was regarded positive in this assay if this criterion is met, otherwise it was regarded as negative.

human limbal stem cells [3] = assay: Human limbal stem cell population expansion and measurement (expansion factor, p63alpha-positive cells); format: cell-based; conditions: 10 micromolar in XVIVO15 medium, two passages; for Expansion factor: ratio of expanded population to seeded cells; for Percentage of p63a-positive cells: share of Sytox Orange-positive nuclei expressing p63alpha
Description: Cells were cultured at 37° C. in 5% CO2.
For each compound, two sets of cultures were generated. A first set of cultures was fixed in 4% PFA for 20 minutes at room temperature after cells isolated from the cornea had attached to the cell culture dish (typically 24 h after cell plating). A second set of cultures was fixed in 4% PFA for 20 minutes at room temperature after being cultured for two passages. Cells were passaged when they reached 90-100% confluence.
In order to observe that the expanded cell population expressed p63alpha, this was measured by immunohistochemistry as follows. The fixed cell cultures were permeabilized and blocked in a blocking solution of 0.3% Triton X-100 (Sigma-Aldrich) and 3% donkey serum in PBS for 30 minutes. Cells were then labeled with primary antibody in the blocking solution for 12 hours at 4° C. Primary antibody used was p63alpha from Cell Signalling. Samples were washed in PBS three times and donkey-raised secondary antibody Alexa Fluor 488 (Molecular Probes) at 1:500 dilution were applied for 30 minutes at room temperature. Cell nuclei were then labeled in a solution of 0.5 micromolar of Sytox Orange (ThermoFisher) in PBS for 5 minutes at room temperature.
To evaluate the percentage of p63alpha-positive cells, the number of cells labeled by the anti-p63alpha antibody was counted and the total number of cells was determined by counting the number of nuclei stained by Sytox Orange. The proportion of p63alpha-positive cells was then determined by calculating the percentage of Sytox-orange-positive nuclei that also expressed p63alpha.
To evaluate cell expansion ratios, nuclei were counted using a Zeiss LSM 880 confocal microscope. The expansion factor was then determined by calculating the ratio of the expanded population of cells to population of seeded cells.

human limbal stem cells [4] = assay: Human limbal stem cell population expansion and immunohistochemical observation of p63alpha phenotype; format: cell-based; conditions: for colony formation and p63alpha expression: 10 micromolar, 6 days after isolation without passaging, DMSO as negative control
Description: Cells were first cultured at 37° C. in 5% CO2 for 6 days after isolation without passaging (FIGS. 2A, 2B and 2C).
To evaluate the ability of the compounds to enable LSC expansion after two passages, LSCs were passaged and cultured for two weeks in the presence of compound example 3 to enable expansion (FIG. 2D). Limbal stem cells (LSCs) were passaged by treating cultures with Accutase for 10 minutes at 37° C., rinsing the cell suspension by centrifugation and plating cells in fresh LSC culture medium supplemented with LATS inhibitor compound example 3.
In order to observe that the expanded cell population expressed p63alpha, this was measured by immunohistochemistry as follows. Cell cultures were fixed with 4% PFA for 20 minutes, permeabilized and blocked in a blocking solution of 0.3% Triton X-100 (Sigma-Aldrich) and 3% donkey serum in PBS for 30 minutes. Cells were then labeled with primary antibody in the blocking solution for 12 hours at 4° C. Primary antibody used was p63alpha from Cell Signalling. Samples were washed in PBS three times and donkey-raised secondary antibody Alexa Fluor 488 (Molecular Probes) at 1:500 dilution were applied for 30 minutes at room temperature. Cells were counter-stained with a human nuclear antigen antibody (Millipore) at a 1:500 dilution in order to label all cells in the culture and confirm their human identity. […] Fluorescence was observed using a Zeiss LSM 880 confocal microscope.

phospho-YAP (ser127) = assay: YAP phosphorylation by Western blot in LSCs exposed to LATS inhibitors; format: cell-based, human; conditions: 10 micromolar, 1 hour, DMSO as negative control
Description: The medium was then replaced by fresh limbal epithelium cell culture medium (DMEM F12 supplemented with 10% human serum and 1.3 mM calcium chloride) supplemented with LATS inhibitor compound example no. […] Cells were cultured under these conditions for 1 hour at 37° C. in 5% CO2.
To measure the effect of the LATS inhibitors on the downstream target YAP, the YAP phosphorylation levels were measured by western blot as follows. The cell pellets were obtained by trypsin dissociation and centrifugation and washed with PBS. The pellets were lysed with 30 microlitres of RIPA lysis buffer containing protease inhibitor cocktail (Life Technologies) for 30 minutes, with vortexing every 10 minutes. The cell debris were then pelleted at 4° C. for 15 minutes at 14 k rpm and the protein lysate was collected. Protein concentration was quantified using a micro BCA kit (Pierce). Fifteen micrograms of total protein was loaded in each well of 4-20% TGX gels (BioRad) and Western blotting was performed according to the manufacturer’s instructions. […] Membranes were stained with HRP-conjugated secondary antibodies, rinsed and imaged using a ChemiDoc system (Biorad) according to the manufacturer’s instructions.

YAP = assay: Intracellular YAP distribution by immunohistochemistry in LSCs exposed to LATS inhibitors; format: cell-based, human; conditions: 10 micromolar, 24 hours, compared with DMSO control
Description: Cells were cultured under these conditions for 24 hours at 37° C. in 5% CO2.
To measure the effect of the LATS inhibitors on the downstream target YAP, intracellular YAP distribution was analyzed by immunohistochemistry. Cell cultures were fixed with 4% PFA for 20 minutes, permeabilized and blocked in a blocking solution of 0.3% Triton X-100 (Sigma-Aldrich) and 3% donkey serum in PBS for 30 minutes. Cells were then labeled with primary antibody in the blocking solution for 12 hours at 4° C. Primary antibody used was anti-YAP from Santa Cruz Biotechnology. Samples were washed in PBS three times and donkey-raised secondary antibody Alexa Fluor 488 (Molecular Probes) at 1:500 dilution were applied for 30 minutes at room temperature. […] Fluorescence was observed using a Zeiss LSM 880 confocal microscope.

[5] = +S-9, 3+27 hours, 337.0 µg/mL (approximately 1 mM)
[6] = +S-9, any concentration up to 337.0 µg/mL
[7] = -S-9, any concentration up to 40.00 µg/mL

SMILES	Conclusion TK6 MNT screen result ([1]; listed as dimethyl(3-methyl-3-{[2-(pyridin-4-yl)pyrido[3,4-d]pyrimid in-4-yl]amino}butyl)a)	Conclusion TK6 MNT screen result ([1]; listed as dimethyl(3-methyl-3-{[2-(pyridin-4-yl)pyrido[3,4-d]pyrimidin-4-yl]amino}butyl)am)	cytotoxicity [1, 5]	increases in micronucleated mononucleate (MNMON) cells [1, 6]	cytotoxicity ([1]; -S-9, 30 hours, 40.00 µg/mL)	increases in micronucleated mononucleate (MNMON) cells [1, 7]	AMES screen result [2]	Expansion factor (human limbal stem cells [3])	Percentage of p63a-positive cells (human limbal stem cells [3])	colony formation and p63alpha expression (human limbal stem cells [4])	YAP phosphorylation levels in human LSCs (Western blot) (phospho-YAP (ser127))	YAP phosphorylation levels in human LSCs (Western blot) (phospho-YAP (ser127); listed as ex. 4)	YAP immunostaining in the nucleus of LSCs (YAP)	cell population expansion and p63alpha expression after passaging (human limbal stem cells [4]; passaged and cultured for two weeks in the presence of the compound)	YAP phosphorylation levels in human LSCs (Western blot) (phospho-YAP (ser127); listed as ex. 3)	Conclusion TK6 MNT screen result [1]
CN(C)CCC(C)(C)Nc1nc(-c2ccncc2)nc2cnccc12 [Example 5, Dimethyl(3-methyl-3-{[2-(pyridin-4-yl)pyrido[3,4-d]pyrimidin-4-yl]amino}butyl)amine]	“negative”	did not induce micronuclei	39%	No statistically significant (p≤0.05) increases	58%	No statistically significant (p≤0.05) increases	did not show evidence of a mutagenic potential; also recorded: “negative”									
Cc1n[nH]cc1-c1nc(NC2(C)CC2)c2ccncc2n1 [Example 4, 2-(3-methyl-1H-pyrazol-4-yl)-N-(1-methylcyclopropyl)pyrido[3,4-d]pyrimidin-4-amine]								1205	89%	formed colonies and expressed p63alpha	reduction in YAP phosphorylation levels	induce YAP dephosphorylation in LSCs within one hour	stronger in the nucleus			
CC(C)(O)CC(C)(C)Nc1nc(-c2ccncc2)nc2cnccc12 [Example 3, 2,4-dimethyl-4-{[2-(pyridin-4-yl)pyrido[3,4-d]pyrimidin-4-yl]amino}pentan-2-ol]								2029	92%	formed colonies and expressed p63alpha	reduction in YAP phosphorylation levels		stronger in the nucleus	enabled cell population expansion and the formation of confluent cultures expressing p63alpha	induce YAP dephosphorylation in LSCs within one hour	
Cc1n[nH]cc1-c1nc(NC(C)(C)CCN(C)C)c2ccncc2n1 [Example 6, N^1,N^1,3-trimethyl-N^3-(2-(3-methyl-1H-pyrazol-4-yl)pyrido[3,4-d]pyrimidin-4-yl)butane-1,3-diamine]			33%	No statistically significant (p≤0.05) increases	57%	No statistically significant (p≤0.05) increases	did not show evidence of a mutagenic potential; also recorded: “negative”									did not induce micronuclei; also recorded: “negative”
